# What was measured:
# [1] = Increase in circulating ketone level after administration of D-BHB, D-BHV and D-1,3BD in various ratios, subjects at rest; assay type: in vivo, human; conditions: for Max change in mMol/L (increase in circulating ketone level): 10 g dose, three human subjects at rest, composition given as % D-BHB acid; for prolonged rise of blood ketone levels: based on measured plasma levels of FIG. 1
# Text: (§1) Examples include using a composition including D-BHB, D-BHV, and D-1,3BD in a subject at rest. The ketotic efficiency represents the net elevation of circulating ketones a ketone supplement affects over time in an individual. Ketotic efficiency may be represented as:
# As illustrated by the examples of FIG. 1, these exemplary compositions can advantageously elevate circulating ketones by approximately two times greater than other known compositions. Such a composition can sustain ketonemia for longer than either D-BHB or D-1,3BD can when ingested alone by a subject of a given weight as shown by the 100% line (i.e., contains D-BHB, but not D-1,3BD) and the 0% line (i.e., contains only D-1,3BD, but not D-BHB).
# As shown in the following table, the increase in circulating ketone level with a 10 g dose in three human subjects at rest was maximal at between 45-55% D-BHB in the tested compositions.
# [2] = Ketotic efficiency (net elevation of circulating ketones over time per dose); assay type: in vivo, human; conditions: person at rest, concentration of DBHB + DBHV in composition with D-1,3BD; for 1 hour ketotic efficiency: 1 hour post-administration; for 2 hours ketotic efficiency: 2 hours post-administration
# Text: as §1
# where mMol/L is the concentration of circulating p-hydroxybutyrate in the blood, g is the total dose of the combined D-BHB, D-BHV, and D-1,3,BD in grams, kg is the mass of the individual in kilograms, and t is an increment of time in minutes.
# The ketotic efficiency of the D-BHB, D-BHV, and D-1,3BD blend measured over of one hour in this exemplary study is 43% to 104% greater than the administration of pure (D)-1,3 butanediol or pure (D)-β-hydroxybutyric acid alone, respectively. While this example pertains to a fasted subject at rest, the relative utility of blended vs pure constituents has also been observed in fed and active subjects.
# FIG. 2 represents the expected ketosis for a person at rest with a 0.13 g/kg dose of (D)-β-hydroxybutyric acid, (D)-β-hydroxyvaleric acid, and (D)-1,3 butanediol over time for the periods shown. […] Administration of examples in accordance with the present disclosure are expected to cause efficient, prolonged rises in circulating blood ketone levels in a manner that is unexpected based on the current literature. As shown in the following table, the highest efficiency at both 1 and 2 hours post-administration was obtained at 45% D-BHB+D-BHV (0.96:0.04) to 55% D-1,3BD and the lowest efficiency was observed when administering D-BHB or D-1,3BD alone.
# [3] = system: patients with glucose transporter 1 deficiency syndrome (GLUT1); conditions: cited from earlier work
Structure (SMILES),Max change in mMol/L (increase in circulating ketone level) [1] [mmol/L],prolonged rise of blood ketone levels [1],1 hour ketotic efficiency [2] [kg·mmol·min/g/L],2 hours ketotic efficiency [2] [kg·mmol·min/g/L],decrease of paroxysmal non-epileptic manifestations [3] [%]
"CC(O)CCO (stereo not drawn) [0%, (D)-1,3 butanediol]",0.8,does not cause a prolonged rise of blood ketone levels,266,462,
"CC(O)CC(=O)O (stereo not drawn) [100%, (D)-β-hydroxybutyric acid]",0.9,A similar result,335,566,
"CCCCCCC(=O)OCC(COC(=O)CCCCCC)OC(=O)CCCCCC [triheptanoin, Triheptanoin]",,,,,90

# Reference: US20240368644A1, “METHODS TO PRODUCE THERAPEUTIC FORMULATIONS COMPRISING HYDROXYBUTIRATE AND HYDROXYVALERATE, THERAPEUTIC FORMULATIONS AND USES THEREOF” (PHB Industrial S.A., priority 2021, published 2024)
